Paper PMC2818883 (Inorganic chemistry, 2010)
Read-outs that look alike come from different tables or passages of the source.

Assays:
HIV = details: cited from earlier work
[1] = test system: HIV-1 (IIIB) and HIV-2 (ROD) strains; format: cell-based; details: for IC50: read-out: IC50 values, text summary over HIV-1 (IIIB) and HIV-2 (ROD) strains
MT-4 cells = experiment: Cytotoxicity evaluation in uninfected MT-4 cells; format: cell-based
HIV-2 (ROD) = experiment: Anti-HIV activity in MT-4 cell cultures, HIV-2; format: cell-based; details: read-out: av. IC50, average, MT-4 cells

Row | Compound | antiviral (anti-HIV) activity in words [1] | IC50 [1] [µM] | further results
1 | Co(III)-cyclam | – | – | anti-HIV activity of metal cyclams in words (HIV): inactive
2 | oxovanadium(IV)-cyclam dichloride [Complex 2] | inactive | > 360 | –
3 | [Cl-].[Cl-].[Cl-].[Cl-].[O]=[V+2].[O]=[V+2].c1cc(CN2CCCNCCNCCCNCC2)ccc1CN1CCCNCCNCCCNCC1 [Complex 4, oxovanadium(IV)-(xylylbicyclam) tetrachloride] | highly active | 0.1 to 0.3 | CC50 (MT-4 cells; read-out: av. CC50, average, uninfected MT-4 cells): > 161 µM; CC50 (MT-4 cells; single determinations, reduces viability of uninfected MT-4 cells by 50%): > 161 µM
4 | Pd(II)-cyclam | – | – | anti-HIV activity of metal cyclams in words (HIV): inactive
5 | O=S(=O)([O-])[O-].O=S(=O)([O-])[O-].[O]=[V+2].[O]=[V+2].c1cc(CN2CCCNCCNCCCNCC2)ccc1CN1CCCNCCNCCCNCC1 [Complex 3, oxovanadium(IV)-(xylylbicyclam) disulfate] | highly active | 1 to 5 | IC50 (HIV-2 (ROD)): 3.3 µM; CC50 (MT-4 cells): > 151 µM
6 | oxovanadium(IV)-cyclam sulfate [Complex 1] | inactive | > 340 | –
7 | c1cc(CN2CCCNCCNCCCNCC2)ccc1CN1CCCNCCNCCCNCC1 [AMD3100, xylylbicyclam] | – | – | IC50 (HIV; read-out: IC50 against HIV, entry inhibitor drug against HIV): < 0.1 µM
